Where two headings read alike, the source gives them in different places.
Tests used:
h-GABA-A α5β3γ2 [1] = molecular target: T1, h-GABA-A α5β3γ2 (Homo sapiens (Human), UniProt P18507+P31644); assay: Two-electrode voltage clamp electrophysiology in Xenopus oocytes expressing GABAA receptors, modulation of GABA EC20 current; type: cell-based
Summary of the method: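 Values are % modulation of an EC20 GABA response, derived point by point from the ratio of compound-exposed versus control current traces (extremum taken, 100×(fold−1)). Recordings used oocytes injected with human α5, β3, γ2 mRNA, clamped at −80 mV at room temperature, at least 3 oocytes each.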

h-GABA-A α5β3γ2 [2] = molecular target: T1, h-GABA-A α5β3γ2; assay: [3H]flumazenil competition binding assay, membranes of HEK293 cells expressing human GABAA receptors
Summary of the method: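 Membranes were prepared from HEK293 cells with transient human α5β3γ2 expression and assayed in Krebs-tris, pH 7.5. Bound radioactivity measured on filters by liquid scintillation.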

[3] = % modulation of GABA EC20 = 100*(Fold increase−1), Xenopus oocytes
[4] = Xenopus oocytes, GABA EC20, test compound at approx. 30 fold its Ki
[5] = displacement of [3H]flumazenil 0.5 nM, HEK293 cells expressing human receptors, mean of two determinations, read-out: Ki h-GABA-A α5β3γ2

## Cc1ccc(-c2noc(C)c2COc2ccc(C(=O)NC3(C)CCC3)nn2)cn1 [Example 118, 6-((5-methyl-3-(6-methylpyridin-3-yl)isoxazol-4-yl)methoxy)-N-(1-methylcyclobutyl)pyridazine-3-carboxamide]
h-GABA-A α5β3γ2 [1]; [3]
  Efficacy (GABA) %: 88%
h-GABA-A α5β3γ2 [1]; [4]
  Fold increase h-GABA-A α5β3γ2 oocyte: 1.88
h-GABA-A α5β3γ2 [2]; [5]
  Ki: 12.3 nM

## Cc1onc(-c2ccc(Cl)nc2)c1COc1ccc(C(=O)NC2CCOCC2)nn1 [Example 159, 6-((3-(6-chloropyridin-3-yl)-5-methylisoxazol-4-yl)methoxy)-N-(tetrahydropyran-4-yl)pyridazine-3-carboxamide]
h-GABA-A α5β3γ2 [1]; [3]
  Efficacy (GABA) %: 55%
h-GABA-A α5β3γ2 [1]; [4]
  Fold increase h-GABA-A α5β3γ2 oocyte: 1.55
h-GABA-A α5β3γ2 [2]; [5]
  Ki: 23.7 nM

## CCC[C@@H](CO)NC(=O)c1ccc(OCc2c(-c3ccc(C)nc3)noc2C)nc1 [Example 4, (S)—N-(1-hydroxypentan-2-yl)-6-((5-methyl-3-(6-methylpyridin-3-yl)isoxazol-4-yl)methoxy)nicotinamide]
h-GABA-A α5β3γ2 [1]; [3]
  Efficacy (GABA) %: 150%
h-GABA-A α5β3γ2 [1]; [4]
  Fold increase h-GABA-A α5β3γ2 oocyte: 2.5
h-GABA-A α5β3γ2 [2]; [5]
  Ki: 7.3 nM

## Cc1onc(-c2ccc(Cl)nc2)c1COc1ccc(C(=O)NC2CC3(COC3)C2)nn1 [Example 162, 6-((3-(6-chloropyridin-3-yl)-5-methylisoxazol-4-yl)methoxy)-N-(2-oxaspiro[3.3]heptan-6-yl)pyridazine-3-carboxamide]
h-GABA-A α5β3γ2 [1]; [3]
  Efficacy (GABA) %: 37%
h-GABA-A α5β3γ2 [1]; [4]
  Fold increase h-GABA-A α5β3γ2 oocyte: 1.37
h-GABA-A α5β3γ2 [2]; [5]
  Ki: 11.2 nM

## Cc1ccc(-c2noc(C)c2COc2ccc(C(=O)N[C@H]3CC[C@](O)(C(F)(F)F)C3)nn2)cn1 (single isomer, unassigned) [Example 150]
h-GABA-A α5β3γ2 [1]; [3]
  Efficacy (GABA) %: 69%
h-GABA-A α5β3γ2 [1]; [4]
  Fold increase h-GABA-A α5β3γ2 oocyte: 1.69
h-GABA-A α5β3γ2 [2]; [5]
  Ki: 16.7 nM

## Cc1ccc(-c2noc(C)c2COc2ccc(C(=O)NC3(C)CCOCC3)nn2)cn1 [Example 97, 6-((5-methyl-3-(6-methylpyridin-3-yl)isoxazol-4-yl)methoxy)-N-(4-methyltetrahydropyran-4-yl)pyridazine-3-carboxamide]
h-GABA-A α5β3γ2 [1]; [3]
  Efficacy (GABA) %: 71%
h-GABA-A α5β3γ2 [1]; [4]
  Fold increase h-GABA-A α5β3γ2 oocyte: 1.71
h-GABA-A α5β3γ2 [2]; [5]
  Ki: 13.6 nM

## Cc1ccc(-c2noc(C)c2COc2ccc(C(=O)N3CC(O)C3)nn2)cn1 [Example 66, (3-hydroxyazetidin-1-yl)(6-((5-methyl-3-(6-methylpyridin-3-yl)isoxazol-4-yl)methoxy)pyridazin-3-yl)methanone]
h-GABA-A α5β3γ2 [1]; [3]
  Efficacy (GABA) %: 69%
h-GABA-A α5β3γ2 [1]; [4]
  Fold increase h-GABA-A α5β3γ2 oocyte: 1.69
h-GABA-A α5β3γ2 [2]; [5]
  Ki: 5.8 nM

## Cc1onc(-c2cccnc2)c1COc1ccc(C(=O)NC2CCOCC2)cn1 [RO-159, reference compound]
h-GABA-A α5β3γ2 [1]; reference compounds, % modulation of GABA EC20
  Efficacy (GABA) %: −12%
h-GABA-A α5β3γ2 [1]; reference compounds, GABAA α5β3γ2 overexpressing oocytes, GABA EC20
  Fold increase h-GABA-A α5β3γ2 oocyte: 0.88
h-GABA-A α5β3γ2 [2]; reference compounds, GABAA receptor α5β3γ2, read-out: Ki α5-human
  Ki: 28 nM

## Cc1ccc(-c2noc(C)c2COc2ccc(C(=O)N3CC(C#N)C3)nn2)cn1 [Example 84, 1-(6-((5-methyl-3-(6-methylpyridin-3-yl)isoxazol-4-yl)methoxy)pyridazine-3-carbonyl)azetidine-3-carbonitrile]
h-GABA-A α5β3γ2 [1]; [3]
  Efficacy (GABA) %: 54%
h-GABA-A α5β3γ2 [1]; [4]
  Fold increase h-GABA-A α5β3γ2 oocyte: 1.54
h-GABA-A α5β3γ2 [2]; [5]
  Ki: 19 nM

## Cc1ccc(-c2noc(C)c2COc2ccc(C(=O)NC3(C)CCCC3)nn2)cn1 [Example 114, 6-((5-methyl-3-(6-methylpyridin-3-yl)isoxazol-4-yl)methoxy)-N-(1-methylcyclopentyl)pyridazine-3-carboxamide]
h-GABA-A α5β3γ2 [1]; [3]
  Efficacy (GABA) %: 74%
h-GABA-A α5β3γ2 [1]; [4]
  Fold increase h-GABA-A α5β3γ2 oocyte: 1.74
h-GABA-A α5β3γ2 [2]; [5]
  Ki: 28.1 nM

From US20240279218A1 (Hoffmann-La Roche Inc., priority 2016, published 2024)
